Data from US20080051466A1, “Isoalpha acid based protein kinase modulation cancer treatment” (Metaproteomics, LLC, priority 2006, published 2008).

Assays:
Assay in all cases: KinaseProfiler Assay
EphA8 = biological target: T1, EphA8 (Homo sapiens, UniProt P29322); format: biochemical; conditions: read-out: EphA8, % of Control
T1 sequence (P29322 28-1005): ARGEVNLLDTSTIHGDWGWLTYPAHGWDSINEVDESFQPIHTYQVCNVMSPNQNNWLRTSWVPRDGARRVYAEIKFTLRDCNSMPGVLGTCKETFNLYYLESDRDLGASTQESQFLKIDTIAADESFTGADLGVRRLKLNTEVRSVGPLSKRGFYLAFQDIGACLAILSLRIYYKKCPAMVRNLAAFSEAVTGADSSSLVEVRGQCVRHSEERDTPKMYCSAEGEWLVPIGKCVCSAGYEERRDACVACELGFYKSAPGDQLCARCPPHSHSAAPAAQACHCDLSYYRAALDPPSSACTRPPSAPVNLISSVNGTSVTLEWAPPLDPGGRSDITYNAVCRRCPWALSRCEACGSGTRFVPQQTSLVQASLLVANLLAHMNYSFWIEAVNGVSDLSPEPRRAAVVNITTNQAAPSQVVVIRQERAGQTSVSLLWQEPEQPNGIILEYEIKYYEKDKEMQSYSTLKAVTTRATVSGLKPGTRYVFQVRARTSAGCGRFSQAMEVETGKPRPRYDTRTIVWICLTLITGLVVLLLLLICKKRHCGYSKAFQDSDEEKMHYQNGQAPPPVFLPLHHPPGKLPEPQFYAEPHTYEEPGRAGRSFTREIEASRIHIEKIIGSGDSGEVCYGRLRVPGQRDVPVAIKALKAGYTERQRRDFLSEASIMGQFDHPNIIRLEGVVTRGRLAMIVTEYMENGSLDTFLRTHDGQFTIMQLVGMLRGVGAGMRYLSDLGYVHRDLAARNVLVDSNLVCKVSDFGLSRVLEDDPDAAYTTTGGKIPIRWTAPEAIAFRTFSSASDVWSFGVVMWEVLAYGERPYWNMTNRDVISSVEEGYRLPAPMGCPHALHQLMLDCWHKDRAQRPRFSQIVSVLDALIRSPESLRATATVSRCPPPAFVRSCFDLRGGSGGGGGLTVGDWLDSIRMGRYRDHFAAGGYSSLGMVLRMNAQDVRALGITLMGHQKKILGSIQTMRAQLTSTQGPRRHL

PAK5 = PAK5 (Homo sapiens, UniProt Q9P286); format: biochemical; conditions: read-out: PAK5, % of Control
IGF-1R = IGF-1R (Homo sapiens, UniProt P08069); format: biochemical; conditions: read-out: IGF-1R, % of Control
EphA2 = EphA2 (Homo sapiens, UniProt P29317); format: biochemical; conditions: read-out: EphA2, % of Control
Ros = Ros (Homo sapiens, UniProt P08922); format: biochemical; conditions: read-out: Ros, % of Control
Flt4 = Flt4 (Homo sapiens, UniProt P35916); format: biochemical; conditions: read-out: Flt4, % of Control
Rsk2 = Rsk2 (Homo sapiens, UniProt P51812); format: biochemical; conditions: read-out: Rsk2, % of Control
CK1γ2 = CK1γ2 (Homo sapiens, UniProt P78368); format: biochemical; conditions: read-out: CK1γ2, % of Control
Tie2 = Tie2 (Homo sapiens, UniProt Q02763); format: biochemical; conditions: 50 ug/ml; read-out: Tie2, % of Control
cSRC = cSRC (Homo sapiens, UniProt P12931); format: biochemical; conditions: read-out: cSRC, % of Control
PKA(b) = PKA(b) (Bos taurus, UniProt P00517); format: biochemical, human; conditions: read-out: PKA(b), % of Control
CK1γ3 = CK1γ3 (Homo sapiens, UniProt Q9Y6M4); format: biochemical; conditions: read-out: CK1γ3, % of Control
TrkA = TrkA (Homo sapiens, UniProt P04629); format: biochemical; conditions: read-out: TrkA, % of Control
Chain of TrkA (P04629 33-796): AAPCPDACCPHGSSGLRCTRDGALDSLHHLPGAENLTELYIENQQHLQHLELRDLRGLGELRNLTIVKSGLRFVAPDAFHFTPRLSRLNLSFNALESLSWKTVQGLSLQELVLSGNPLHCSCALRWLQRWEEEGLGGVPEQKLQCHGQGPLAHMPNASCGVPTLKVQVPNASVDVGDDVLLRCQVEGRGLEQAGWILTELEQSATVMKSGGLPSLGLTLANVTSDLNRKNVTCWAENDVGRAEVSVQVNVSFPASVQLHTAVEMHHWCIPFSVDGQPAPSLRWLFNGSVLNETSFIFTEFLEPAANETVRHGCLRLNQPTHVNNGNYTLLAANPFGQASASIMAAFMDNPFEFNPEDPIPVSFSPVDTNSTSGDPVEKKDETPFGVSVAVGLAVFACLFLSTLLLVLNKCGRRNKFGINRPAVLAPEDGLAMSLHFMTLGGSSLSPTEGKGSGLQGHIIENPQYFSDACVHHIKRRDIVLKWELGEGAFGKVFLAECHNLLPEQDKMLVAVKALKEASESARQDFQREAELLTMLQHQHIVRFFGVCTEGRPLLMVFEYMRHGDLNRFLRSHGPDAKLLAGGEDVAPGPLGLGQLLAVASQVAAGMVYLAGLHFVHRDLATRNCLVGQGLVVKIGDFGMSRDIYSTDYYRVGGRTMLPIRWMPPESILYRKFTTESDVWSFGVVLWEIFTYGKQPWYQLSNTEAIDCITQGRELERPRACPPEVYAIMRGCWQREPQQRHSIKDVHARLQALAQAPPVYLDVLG

Chain of CK1γ2 (P78368 whole entry): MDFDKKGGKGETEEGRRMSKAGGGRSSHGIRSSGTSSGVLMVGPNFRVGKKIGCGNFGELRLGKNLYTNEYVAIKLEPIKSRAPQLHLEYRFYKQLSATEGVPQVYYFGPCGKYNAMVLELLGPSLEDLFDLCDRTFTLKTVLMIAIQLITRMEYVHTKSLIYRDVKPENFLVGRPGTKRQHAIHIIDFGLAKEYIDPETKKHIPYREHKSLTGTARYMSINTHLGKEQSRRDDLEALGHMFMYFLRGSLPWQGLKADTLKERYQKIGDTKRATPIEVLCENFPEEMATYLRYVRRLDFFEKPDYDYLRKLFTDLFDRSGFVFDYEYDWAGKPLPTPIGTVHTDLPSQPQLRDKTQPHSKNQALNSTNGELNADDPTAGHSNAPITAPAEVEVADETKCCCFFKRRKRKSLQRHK
Chain of Flt4 (P35916 25-1363): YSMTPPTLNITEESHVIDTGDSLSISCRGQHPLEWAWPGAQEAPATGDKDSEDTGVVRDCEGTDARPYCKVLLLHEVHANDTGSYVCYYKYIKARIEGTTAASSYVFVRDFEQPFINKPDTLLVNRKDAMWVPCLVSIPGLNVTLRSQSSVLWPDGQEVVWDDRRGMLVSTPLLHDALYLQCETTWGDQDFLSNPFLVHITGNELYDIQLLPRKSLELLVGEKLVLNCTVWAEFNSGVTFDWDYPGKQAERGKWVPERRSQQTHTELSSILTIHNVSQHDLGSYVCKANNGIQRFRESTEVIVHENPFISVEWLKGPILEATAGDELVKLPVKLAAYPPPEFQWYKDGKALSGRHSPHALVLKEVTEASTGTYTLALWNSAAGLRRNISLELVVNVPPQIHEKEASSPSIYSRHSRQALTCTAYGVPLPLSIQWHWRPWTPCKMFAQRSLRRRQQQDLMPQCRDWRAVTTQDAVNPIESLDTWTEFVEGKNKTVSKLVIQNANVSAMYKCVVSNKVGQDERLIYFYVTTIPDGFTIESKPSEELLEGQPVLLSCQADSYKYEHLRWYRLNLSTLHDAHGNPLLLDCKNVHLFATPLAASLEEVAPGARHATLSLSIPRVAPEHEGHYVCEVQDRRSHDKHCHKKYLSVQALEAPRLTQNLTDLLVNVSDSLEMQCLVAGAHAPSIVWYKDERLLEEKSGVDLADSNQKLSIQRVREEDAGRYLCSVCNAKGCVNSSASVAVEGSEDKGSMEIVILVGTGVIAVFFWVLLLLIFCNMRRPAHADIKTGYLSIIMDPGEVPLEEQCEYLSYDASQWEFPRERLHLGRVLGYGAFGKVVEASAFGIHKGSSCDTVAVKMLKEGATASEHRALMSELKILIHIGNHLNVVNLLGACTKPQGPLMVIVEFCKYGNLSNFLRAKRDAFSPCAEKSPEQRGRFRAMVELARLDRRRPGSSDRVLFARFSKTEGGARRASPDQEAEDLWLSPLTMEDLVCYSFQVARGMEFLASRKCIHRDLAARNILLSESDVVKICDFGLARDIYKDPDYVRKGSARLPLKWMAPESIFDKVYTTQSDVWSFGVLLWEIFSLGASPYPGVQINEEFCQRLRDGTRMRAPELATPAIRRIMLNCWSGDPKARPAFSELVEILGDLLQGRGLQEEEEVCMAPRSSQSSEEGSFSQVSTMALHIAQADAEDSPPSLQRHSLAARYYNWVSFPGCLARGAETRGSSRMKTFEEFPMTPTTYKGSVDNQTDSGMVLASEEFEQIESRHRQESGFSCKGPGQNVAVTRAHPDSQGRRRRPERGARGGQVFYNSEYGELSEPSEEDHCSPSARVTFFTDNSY
Chain of Ros (P08922 28-2347): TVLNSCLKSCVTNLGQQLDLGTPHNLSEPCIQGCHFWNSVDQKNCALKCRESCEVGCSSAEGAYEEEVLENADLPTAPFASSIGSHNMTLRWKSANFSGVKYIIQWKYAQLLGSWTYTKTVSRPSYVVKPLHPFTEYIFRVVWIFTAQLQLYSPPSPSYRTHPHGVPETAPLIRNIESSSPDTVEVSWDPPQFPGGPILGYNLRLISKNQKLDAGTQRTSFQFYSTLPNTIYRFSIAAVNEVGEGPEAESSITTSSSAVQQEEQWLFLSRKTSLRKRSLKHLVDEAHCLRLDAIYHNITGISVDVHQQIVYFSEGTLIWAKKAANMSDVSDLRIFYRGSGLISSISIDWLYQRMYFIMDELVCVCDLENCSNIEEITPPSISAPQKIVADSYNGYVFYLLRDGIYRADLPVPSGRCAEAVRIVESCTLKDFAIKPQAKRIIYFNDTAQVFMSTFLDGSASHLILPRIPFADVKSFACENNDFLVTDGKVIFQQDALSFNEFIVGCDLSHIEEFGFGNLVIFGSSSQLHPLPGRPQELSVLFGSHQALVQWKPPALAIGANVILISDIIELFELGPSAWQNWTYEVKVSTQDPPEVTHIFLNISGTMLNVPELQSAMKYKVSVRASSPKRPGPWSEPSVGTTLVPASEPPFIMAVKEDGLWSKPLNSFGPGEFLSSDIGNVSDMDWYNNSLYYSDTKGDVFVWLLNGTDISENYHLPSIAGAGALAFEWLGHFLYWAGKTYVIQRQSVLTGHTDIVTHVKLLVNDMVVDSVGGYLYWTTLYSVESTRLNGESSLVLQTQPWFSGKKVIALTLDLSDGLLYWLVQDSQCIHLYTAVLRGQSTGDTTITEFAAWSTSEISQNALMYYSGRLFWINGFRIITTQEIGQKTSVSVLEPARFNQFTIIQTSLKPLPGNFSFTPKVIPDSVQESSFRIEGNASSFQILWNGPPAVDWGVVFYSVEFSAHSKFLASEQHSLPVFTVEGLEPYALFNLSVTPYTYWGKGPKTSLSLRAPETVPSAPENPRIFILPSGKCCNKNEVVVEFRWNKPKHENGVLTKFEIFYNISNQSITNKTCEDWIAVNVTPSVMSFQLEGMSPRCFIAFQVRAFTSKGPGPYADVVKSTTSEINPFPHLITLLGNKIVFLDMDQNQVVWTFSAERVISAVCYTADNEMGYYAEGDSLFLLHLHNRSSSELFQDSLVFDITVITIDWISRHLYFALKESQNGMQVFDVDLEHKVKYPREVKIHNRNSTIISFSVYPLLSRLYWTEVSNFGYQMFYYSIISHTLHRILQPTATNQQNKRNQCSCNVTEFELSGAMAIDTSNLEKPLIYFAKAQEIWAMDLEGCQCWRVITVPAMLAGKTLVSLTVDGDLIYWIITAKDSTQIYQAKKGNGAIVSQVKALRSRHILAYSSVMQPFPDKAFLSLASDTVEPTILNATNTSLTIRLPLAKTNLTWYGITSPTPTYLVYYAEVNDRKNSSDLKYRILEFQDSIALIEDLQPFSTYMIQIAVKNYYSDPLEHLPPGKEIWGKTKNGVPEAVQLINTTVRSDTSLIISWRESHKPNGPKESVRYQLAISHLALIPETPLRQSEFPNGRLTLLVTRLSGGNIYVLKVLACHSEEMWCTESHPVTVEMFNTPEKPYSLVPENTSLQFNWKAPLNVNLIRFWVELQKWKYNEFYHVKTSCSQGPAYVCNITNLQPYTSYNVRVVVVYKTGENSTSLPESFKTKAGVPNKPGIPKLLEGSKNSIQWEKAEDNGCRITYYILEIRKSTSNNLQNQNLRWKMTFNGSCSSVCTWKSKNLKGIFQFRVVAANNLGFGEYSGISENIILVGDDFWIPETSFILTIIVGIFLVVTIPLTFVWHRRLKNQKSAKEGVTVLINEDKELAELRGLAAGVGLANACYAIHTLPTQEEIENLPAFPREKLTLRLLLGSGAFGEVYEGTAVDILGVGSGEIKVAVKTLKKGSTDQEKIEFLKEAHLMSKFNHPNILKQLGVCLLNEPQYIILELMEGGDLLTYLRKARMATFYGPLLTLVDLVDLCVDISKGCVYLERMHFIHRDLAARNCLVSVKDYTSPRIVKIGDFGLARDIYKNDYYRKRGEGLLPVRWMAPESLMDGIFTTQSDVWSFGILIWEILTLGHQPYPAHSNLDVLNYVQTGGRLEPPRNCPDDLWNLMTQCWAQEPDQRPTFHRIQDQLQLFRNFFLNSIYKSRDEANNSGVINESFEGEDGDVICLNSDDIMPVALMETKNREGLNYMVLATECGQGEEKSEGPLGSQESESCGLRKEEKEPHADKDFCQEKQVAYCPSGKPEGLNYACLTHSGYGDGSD

COc1cc(O)c(CC=C(C)C)c(O)c1C(=O)/C=C/c1ccc(O)cc1 [Xanthohumol, xanthohumol] showed a remaining activity at 1 µg/mL (EphA8; 1 ug/ml) of 103%, a remaining activity at 5 µg/mL (EphA8; 5 ug/ml) of 92% and a remaining activity at 25 µg/mL (EphA8; 25 ug/ml) of 29%. It also gave a remaining activity at 50 µg/mL (EphA8; 50 ug/ml) of 19%, a remaining activity at 1 µg/mL (PAK5; 1 ug/ml) of 106% and a remaining activity at 5 µg/mL (PAK5; 5 ug/ml) of 99%. The remaining activity at 25 µg/mL (PAK5; 25 ug/ml) was 42%, the remaining activity at 50 µg/mL (PAK5; 50 ug/ml) was 5% and the remaining activity at 25 µg/mL (IGF-1R; 25 ug/ml) was 129%. The remaining activity at 50 µg/mL (IGF-1R; 50 ug/ml) was 139%, the remaining activity at 1 µg/mL (EphA2; 1 ug/ml) was 124% and the remaining activity at 50 µg/mL (EphA2; 50 ug/ml) was 52%. For the same molecule, the remaining activity at 1 µg/mL (Ros; 1 ug/ml) was 101%, the remaining activity at 5 µg/mL (Ros; 5 ug/ml) was 99% and the remaining activity at 25 µg/mL (Ros; 25 ug/ml) was 85%. It also gave a remaining activity at 50 µg/mL (Ros; 50 ug/ml) of 94%, a remaining activity at 1 µg/mL (Flt4; 1 ug/ml) of 74% and a remaining activity at 5 µg/mL (Flt4; 5 ug/ml) of 10%. The remaining activity at 25 µg/mL (Flt4; 25 ug/ml) was 11%, the remaining activity at 1 µg/mL (Rsk2; 1 ug/ml) was 96% and the remaining activity at 5 µg/mL (Rsk2; 5 ug/ml) was 43%. It also gave a remaining activity at 25 µg/mL (Rsk2; 25 ug/ml) of 3%, a remaining activity at 1 µg/mL (CK1γ2; 1 ug/ml) of 92% and a remaining activity at 5 µg/mL (CK1γ2; 5 ug/ml) of 48%. For the same molecule, the remaining activity at 25 µg/mL (CK1γ2; 25 ug/ml) was 30%, the remaining activity at 50 µg/mL (CK1γ2; 50 ug/ml) was 12% and the remaining activity at 50 µg/mL (Tie2) was 35%. The remaining activity at 1 µg/mL (cSRC; 1 ug/ml) was 92%, the remaining activity at 5 µg/mL (cSRC; 5 ug/ml) was 50% and the remaining activity at 25 µg/mL (cSRC; 25 ug/ml) was 27%. The remaining activity at 50 µg/mL (cSRC; 50 ug/ml) was 21%, the remaining activity at 1 µg/mL (PKA(b); 1 ug/ml) was 137% and the remaining activity at 25 µg/mL (PKA(b); 25 ug/ml) was 33%. The remaining activity at 1 µg/mL (CK1γ3; 1 ug/ml) was 98%, the remaining activity at 5 µg/mL (CK1γ3; 5 ug/ml) was 51% and the remaining activity at 25 µg/mL (CK1γ3; 25 ug/ml) was 22%. It also gave a remaining activity at 50 µg/mL (CK1γ3; 50 ug/ml) of 15%, a remaining activity at 1 µg/mL (TrkA; 1 ug/ml) of 36% and a remaining activity at 5 µg/mL (TrkA; 5 ug/ml) of 19%. The remaining activity at 25 µg/mL (TrkA; 25 ug/ml) was 8% and the remaining activity at 50 µg/mL (TrkA; 50 ug/ml) was 3%.
